PubChem BioAssay (NCI)
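How tested: cells in 96-well plates exposed to compound for 48 hours at five concentrations. TGI: total growth inhibition.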

Assays:
Assay in all cases: NCI tumour cell line growth inhibition, 48 h
M19-MEL melanoma = test system: M19-MEL melanoma
LXFL 529 NSCLC = test system: LXFL 529 NSCLC
DMS 273 small cell lung = test system: DMS 273 small cell lung
DLD-1 colon = test system: DLD-1 colon
SNB-78 CNS = test system: SNB-78 CNS
SN12K1 renal = test system: SN12K1 renal
P388/ADR leukemia = test system: P388/ADR leukemia
P388 leukemia = test system: P388 leukemia
XF 498 CNS = test system: XF 498 CNS

CCOC(=O)CC1(c2cccc3ccccc23)OC(=O)c2ccccc21 (configuration not stated)
TGI (M19-MEL melanoma): > 100 µM
TGI (LXFL 529 NSCLC): > 100 µM
TGI (DMS 273 small cell lung): > 100 µM
TGI (DLD-1 colon): > 100 µM
TGI (SNB-78 CNS): > 100 µM

c1csc(C[N+]23CN4CN(CN(C4)C2)C3)c1
TGI (M19-MEL melanoma): 56 µM
TGI (LXFL 529 NSCLC): 43.1 µM
TGI (DMS 273 small cell lung): 41.8 µM
TGI (DLD-1 colon): > 100 µM

CC(C)C(N)=O
TGI (M19-MEL melanoma): > 5000 µM
TGI (LXFL 529 NSCLC): > 5000 µM
TGI (DMS 273 small cell lung): > 5000 µM
TGI (DLD-1 colon): > 5000 µM
TGI (SNB-78 CNS): > 5000 µM

C=C(OC1C(C)=C2C(C1OC(=O)CCCCCCC)C(C)(OC(C)=O)CC(OC(=O)CCC)C1(O)C2OC(=O)C1(C)O)/C(C)=C/C (configuration not stated)
TGI (SN12K1 renal): 0.0786 µM
TGI (P388/ADR leukemia): 1.84 µM
TGI (M19-MEL melanoma): 1.29 µM
TGI (DMS 273 small cell lung): 0.453 µM
TGI (DLD-1 colon): 16.4 µM
TGI (P388 leukemia): 0.993 µM
TGI (XF 498 CNS): 8.97 µM
TGI (SNB-78 CNS): 19.1 µM
